Test results reported in publication PMC3518039 (Journal of medicinal chemistry, 2012).

Legend:
[1] = molecular target: Mycobacterium tuberculosis Rv0183 (monoglyceride lipase) (Mycobacterium tuberculosis, UniProt O07427); type: biochemical
Fusarium solani Cutinase = Fusarium solani Cutinase (Fusarium vanettenii, UniProt P00590); type: biochemical, Fusarium solani pisi
[2] = molecular target: Mycobacterium tuberculosis LipY (triacylglycerol lipase) (Mycobacterium tuberculosis, UniProt I6Y2J4); type: biochemical
LipY = molecular target: T1, LipY (Mycobacterium tuberculosis, UniProt I6Y2J4); type: binding
T1 sequence (I6Y2J4 1-437): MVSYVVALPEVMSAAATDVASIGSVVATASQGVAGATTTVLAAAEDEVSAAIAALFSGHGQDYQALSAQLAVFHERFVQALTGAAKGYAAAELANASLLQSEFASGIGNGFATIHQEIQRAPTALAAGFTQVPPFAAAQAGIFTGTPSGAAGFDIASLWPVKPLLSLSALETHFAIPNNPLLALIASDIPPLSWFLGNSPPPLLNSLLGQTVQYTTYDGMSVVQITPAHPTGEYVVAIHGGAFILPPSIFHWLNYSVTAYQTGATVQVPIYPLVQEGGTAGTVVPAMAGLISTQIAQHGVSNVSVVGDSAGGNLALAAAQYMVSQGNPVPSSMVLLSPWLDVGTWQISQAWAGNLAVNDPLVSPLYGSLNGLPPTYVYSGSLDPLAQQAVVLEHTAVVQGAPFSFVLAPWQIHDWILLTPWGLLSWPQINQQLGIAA

Fusarium solani Cutinase, sequence (P00590 17-230): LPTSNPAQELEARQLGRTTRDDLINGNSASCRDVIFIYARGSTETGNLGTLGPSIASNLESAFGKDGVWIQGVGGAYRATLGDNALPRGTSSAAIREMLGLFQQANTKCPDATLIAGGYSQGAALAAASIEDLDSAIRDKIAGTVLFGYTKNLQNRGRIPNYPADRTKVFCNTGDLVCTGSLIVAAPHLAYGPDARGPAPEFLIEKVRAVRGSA
Mycobacterium tuberculosis Rv0183 (monoglyceride lipase), sequence (O07427 whole entry, looked up): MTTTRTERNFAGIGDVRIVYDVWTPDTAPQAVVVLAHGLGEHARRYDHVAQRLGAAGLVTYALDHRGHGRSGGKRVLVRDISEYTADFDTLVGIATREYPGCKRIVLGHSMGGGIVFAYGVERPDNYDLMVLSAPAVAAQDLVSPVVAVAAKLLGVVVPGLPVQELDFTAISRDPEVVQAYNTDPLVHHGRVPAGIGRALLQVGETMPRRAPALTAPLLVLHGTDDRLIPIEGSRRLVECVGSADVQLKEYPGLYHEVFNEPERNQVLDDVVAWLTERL

Structure (SMILES)	DI (Diastereoselectivity Index between trans-(α) and cis-(β) isomers), Rv0183 [1] [%]	DI (Diastereoselectivity Index between trans-(α) and cis-(β) isomers), Cutinase (Fusarium solani Cutinase) [%]	DI (Diastereoselectivity Index between trans-(α) and cis-(β) isomers), LipY [2] [%]	also measured
CCCCCC1CCP(=O)(OC)OC(C)=C1C(=O)OC (racemic) [6(α), (±) Methyl 2-methoxy-7-methyl-5-pentyl-2,3,4,5-tetrahydro-1,2-oxaphosphepine-6-carboxylate 2-oxide]	16.7	89.7	–	xI50 (inhibitor molar excess leading to 50% lipase inhibition), LipY [2]: > 100
CCCCCC1CCP(=O)(OC)OC(C)=C1C(=O)OC (racemic) [6(β), (±) Methyl 2-methoxy-7-methyl-5-pentyl-2,3,4,5-tetrahydro-1,2-oxaphosphepine-6-carboxylate 2-oxide]	16.7	89.7	–	xI50 (inhibitor molar excess leading to 50% lipase inhibition), LipY [2]: > 100
CCCCCCCCCCC1CCP(=O)(OC)OC(C)=C1C(=O)OC (racemic) [7(α), (±) Methyl 5-decyl-2-methoxy-7-methyl-2,3,4,5-tetrahydro-1,2-oxaphosphepine-6-carboxylate 2-oxide]	51.9	76.2	80.3	–
CCCCCCCCCCCCC1CCP(=O)(OC)OC(C)=C1C(=O)OC (racemic) [8(α), (±) Methyl 5-dodecyl-2-methoxy-7-methyl-2,3,4,5-tetrahydro-1,2-oxaphosphepine-6-carboxylate 2-oxide]	36.3	29.0	28.0	–
CCCCCCCCCCCCC1CCP(=O)(OC)OC(C)=C1C(=O)OC (racemic) [8(β), (±) Methyl 5-dodecyl-2-methoxy-7-methyl-2,3,4,5-tetrahydro-1,2-oxaphosphepine-6-carboxylate 2-oxide]	36.3	29.0	28.0	–
CCCCCCCCCCCCCCCCC1CCP(=O)(OC)OC(C)=C1C(=O)OC (racemic) [9(α), (±) Methyl 5-hexadecyl-2-methoxy-7-methyl-2,3,4,5-tetrahydro-1,2-oxaphosphepine - 6-carboxylate 2-oxide]	> 97.0	27.2	70.5	–
CCCCCCCCCCCCCCCCC1CCP(=O)(OC)OC(C)=C1C(=O)OC (racemic) [9(β), (±) Methyl 5-hexadecyl-2-methoxy-7-methyl-2,3,4,5-tetrahydro-1,2-oxaphosphepine - 6-carboxylate 2-oxide]	> 97.0	27.2	70.5	–
CCCCCCCCCCCCCCCCCCC1CCP(=O)(OC)OC(C)=C1C(=O)OC (racemic) [10(α), (±) Methyl 2-methoxy-7-methyl-5-octadecyl-2,3,4,5-tetrahydro-1,2-oxaphosphepine-6-carboxylate 2-oxide]	> 93.0	72.1	81.3	–
CCCCCCCCCCCCCCCCCCC1CCP(=O)(OC)OC(C)=C1C(=O)OC (racemic) [10(β), (±) Methyl 2-methoxy-7-methyl-5-octadecyl-2,3,4,5-tetrahydro-1,2-oxaphosphepine-6-carboxylate 2-oxide]	> 93.0	72.1	81.3	–
CCCCCCCCCCC1CCP(=O)(OC)OC(C)=C1C(=O)OC (racemic) [Compound 7(β), (±) Methyl 5-decyl-2-methoxy-7-methyl-2,3,4,5-tetrahydro-1,2-oxaphosphepine-6-carboxylate 2-oxide]	51.9	76.2	80.3	half-inactivation time (t1/2), Rv0183 [1]: 86.4 s; residual lipase activity (plateau), Rv0183 [1]: around 6.0%
CO[P@]1(=O)OC[C@H]2COC(=O)C2=C(C)O1 [Compound 1, Cyclophostin]	–	–	–	half-inactivation time (t1/2), Cutinase (Fusarium solani Cutinase): 10.8 s; residual lipase activity (plateau), Cutinase (Fusarium solani Cutinase): around 6.0%; xI50 (inhibitor molar excess leading to 50% lipase inhibition), LipY [2]: > 100
CCCCCCCCCCCCCCCCOP1(=O)CCCC(C(=O)OC)=C(C)O1 (stereo not shown) [Compound 11, Methyl 7-methyl-2-(hexadecyloxy)-2,3,4,5-tetrahydro-1,2-oxaphosphepine-6-carboxylate 2-oxide]	–	–	–	half-inactivation time (t1/2), LipY [2]: 9.6 s; Mass modifications (inhibited minus native lipase), LipY (LipY): +443.8 Da
